target: T1, recombinant human 17β-HSD1 (Homo sapiens, UniProt P14061); assay: Inhibition of recombinant human 17β-HSD1 (estrone to estradiol conversion, HPLC/radioactivity); format: biochemical; conditions: compound 100 nM; 30 nM estrone, 1 mM NADPH, 30 min RT
T1 construct: made in house; host or cells: Sd9 (Sf9) insect cells, baculovirus (Bac to Bac Expression System)
T1 sequence (P14061 1-328): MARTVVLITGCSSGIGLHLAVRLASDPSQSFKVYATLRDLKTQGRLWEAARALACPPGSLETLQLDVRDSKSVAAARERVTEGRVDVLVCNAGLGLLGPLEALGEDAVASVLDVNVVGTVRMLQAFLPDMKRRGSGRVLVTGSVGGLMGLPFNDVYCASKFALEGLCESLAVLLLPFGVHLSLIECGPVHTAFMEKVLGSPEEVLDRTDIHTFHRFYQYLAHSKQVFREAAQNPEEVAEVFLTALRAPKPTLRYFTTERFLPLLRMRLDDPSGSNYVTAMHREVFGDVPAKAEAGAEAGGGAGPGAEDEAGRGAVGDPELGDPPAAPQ
How it was run: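 Microsomal human 17β-HSD1 from Sf9 baculovirus (1 μg/ml) was incubated 30 min at RT in 20 mM KH2PO4 pH 7.4 with 30 nM ^3H-estrone, 1 mM NADPH and inhibitor at 1 μM or 0.1 μM (1% DMSO). Estrone and estradiol were separated by HPLC with radioactivity detection. % inhibition = 100 − % conversion relative to uninhibited control.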

| SMILES | inhibition at 0.1 µM [%] |
| --- | --- |
| C[C@]12CCC3c4cccc(F)c4CCC3C1[C@H](CCC(=O)Nc1ncc(F)cc1F)c1c[nH]nc12 (stereo partly drawn) [Compound 9, N-(3,5-difluoropyridin-2-yl)-3-((8aS,12S)-3-fluoro-8a-methyl-1,2,6b,7,8,8a,10,12,12a,12b-decahydronaphtho[2′,1′:4,5]indeno[1,2-c]pyrazol-12-yl)propanamide] | 82 |
| C[C@]12CCC3c4cccc(F)c4CCC3C1[C@H](CCC(=O)Nc1cc(F)ccn1)c1c[nH]nc12 (stereo partly drawn) [Compound 15, 3-((8aS,12S)-3-fluoro-8a-methyl-1,2,6b,7,8,8a,10,12,12a,12b-decahydronaphtho[2′,1′:4,5]indeno[1,2-c]pyrazol-12-yl)-N-(4-fluoropyridin-2-yl)propanamide] | 96 |
| C[C@]12CCC3c4cccc(F)c4CCC3C1[C@H](CCC(=O)Nc1ccccn1)c1c[nH]nc12 (stereo partly drawn) [Compound 18, 3-((8aS,12S)-3-fluoro-8a-methyl-1,2,6b,7,8,8a,10,12,12a,12b-decahydronaphtho[2′,1′:4,5]indeno[1,2-c]pyrazol-12-yl)-N-(pyridin-2-yl)propanamide] | 91 |
| COc1ccc(NC(=O)CC[C@@H]2c3c[nH]nc3[C@@]3(C)CCC4c5cccc(F)c5CCC4C23)nc1 (stereo partly drawn) [Compound 21, 3-((8aS,12S)-3-fluoro-8a-methyl-1,2,6b,7,8,8a,10,12,12a,12b-decahydronaphtho[2′,1′:4,5]indeno[1,2-c]pyrazol-12-yl)-N-(5-methoxypyridin-2-yl)propanamide] | 97 |
| C[C@]12CCC3c4cccc(F)c4CCC3C1[C@H](CCC(=O)N1CCNC(=O)C1)c1c[nH]nc12 (stereo partly drawn) [Compound 24, 4-(3-((8aS,12S)-3-fluoro-8a-methyl-1,2,6b,7,8,8a,10,12,12a,12b-decahydronaphtho[2′,1′:4,5]indeno[1,2-c]pyrazol-12-yl)propanoyl)piperazin-2-one] | 83 |
| C[C@]12CCC3c4cccc(F)c4CCC3C1[C@H](CCC(=O)Nc1cc3c([nH]c1=O)CCCC3)c1c[nH]nc12 (stereo partly drawn) [Compound 30, 3-((8aS,12S)-3-fluoro-8a-methyl-1,2,6b,7,8,8a,10,12,12a,12b-decahydronaphtho[2′,1′:4,5]indeno[1,2-c]pyrazol-12-yl)-N-(2-oxo-1,2,5,6,7,8-hexahydroquinolin-3-yl)propanamide] | 95 |
| CN(C)C(=O)c1ccc(NC(=O)CC[C@@H]2c3c[nH]nc3[C@@]3(C)CCC4c5cccc(F)c5CCC4C23)nc1 (stereo partly drawn) [Compound 33, 6-(3-((8aS,12S)-3-fluoro-8a-methyl-1,2,6b,7,8,8a,10,12,12a,12b-decahydronaphtho[2′,1′:4,5]indeno[1,2-c]pyrazol-12-yl)propanamido)-N,N-dimethylnicotinamide] | 95 |
| CC(C)c1ccc(NC(=O)CC[C@@H]2c3c[nH]nc3[C@@]3(C)CCC4c5cccc(F)c5CCC4C23)nc1 (stereo partly drawn) [Compound 36, 3-((8aS,12S)-3-fluoro-8a-methyl-1,2,6b,7,8,8a,10,12,12a,12b-decahydronaphtho[2′,1′:4,5]indeno[1,2-c]pyrazol-12-yl)-N-(5-isopropylpyridin-2-yl)propanamide] | 100 |
| C[C@]12CCC3c4cccc(F)c4CCC3C1[C@H](CCC(=O)Nc1ccc(N3CCOCC3)cn1)c1c[nH]nc12 (stereo partly drawn) [Compound 39, 3-((8aS,12S)-3-fluoro-8a-methyl-1,2,6b,7,8,8a,10,12,12a,12b-decahydronaphtho[2′,1′:4,5]indeno[1,2-c]pyrazol-12-yl)-N-(5-morpholinopyridin-2-yl)propanamide] | 91 |
| CN1CCN(c2ccc(NC(=O)CC[C@@H]3c4c[nH]nc4[C@@]4(C)CCC5c6cccc(F)c6CCC5C34)nc2)CC1 (stereo partly drawn) [Compound 42, 3-((8aS,12S)-3-fluoro-8a-methyl-1,2,6b,7,8,8a,10,12,12a,12b-decahydronaphtho[2′,1′:4,5]indeno[1,2-c]pyrazol-12-yl)-N-(5-(4-methylpiperazin-1-yl)pyridin-2-yl)propanamide] | 91 |
| COc1ccnc(NC(=O)CC[C@@H]2c3c[nH]nc3[C@@]3(C)CCC4c5cccc(F)c5CCC4C23)c1 (stereo partly drawn) [Compound 48, 3-((8aS,12S)-3-fluoro-8a-methyl-1,2,6b,7,8,8a,10,12,12a,12b-decahydronaphtho[2′,1′:4,5]indeno[1,2-c]pyrazol-12-yl)-N-(4-methoxypyridin-2-yl)propanamide] | 91 |
| C[C@]12CCC3c4cccc(F)c4CCC3C1[C@H](CCC(=O)Nc1cnccn1)c1c[nH]nc12 (stereo partly drawn) [Compound 51, 3-((8aS,12S)-3-fluoro-8a-methyl-1,2,6b,7,8,8a,10,12,12a,12b-decahydronaphtho[2′,1′:4,5]indeno[1,2-c]pyrazol-12-yl)-N-(pyrazin-2-yl)propanamide] | 90 |
| Cn1ccc(NC(=O)CC[C@@H]2c3c[nH]nc3[C@@]3(C)CCC4c5cccc(F)c5CCC4C23)n1 (stereo partly drawn) [Compound 54, 3-((8aS,12S)-3-fluoro-8a-methyl-1,2,6b,7,8,8a,10,12,12a,12b-decahydronaphtho[2′,1′:4,5]indeno[1,2-c]pyrazol-12-yl)-N-(1-methyl-1H-pyrazol-3-yl)propanamide] | 87 |
| C[C@]12CCC3c4cccc(F)c4CCC3C1[C@H](CCC(=O)N1Cc3ccccc3C1)c1c[nH]nc12 (stereo partly drawn) [Compound 57, 3-((8aS,12S)-3-fluoro-8a-methyl-1,2,6b,7,8,8a,10,12,12a,12b-decahydronaphtho[2′,1′:4,5]indeno[1,2-c]pyrazol-12-yl)-1-(isoindolin-2-yl)propan-1-one] | 92 |
| COc1ccc(NC(=O)CC[C@@H]2c3c[nH]nc3[C@@]3(C)CCC4c5ccc(F)cc5CCC4C23)nc1 (stereo partly drawn) [Compound 84, 3-((8aS,12S)-4-fluoro-8a-methyl-1,2,6b,7,8,8a,10,12,12a,12b-decahydronaphtho[2′,1′:4,5]indeno[1,2-c]pyrazol-12-yl)-N-(5-methoxypyridin-2-yl)propanamide] | 87 |
| CC(C)c1ccc(NC(=O)CC[C@@H]2c3c[nH]nc3[C@@]3(C)CCC4c5ccc(F)cc5CCC4C23)nc1 (stereo partly drawn) [Compound 87, 3-((8aS,12S)-4-fluoro-8a-methyl-1,2,6b,7,8,8a,10,12,12a,12b-decahydronaphtho[2′,1′:4,5]indeno[1,2-c]pyrazol-12-yl)-N-(5-isopropylpyridin-2-yl)propanamide] | 87 |
| COc1ccnc(NC(=O)CC[C@@H]2c3c[nH]nc3[C@@]3(C)CCC4c5ccc(F)cc5CCC4C23)c1 (stereo partly drawn) [Compound 90, 3-((8aS,12S)-4-fluoro-8a-methyl-1,2,6b,7,8,8a,10,12,12a,12b-decahydronaphtho[2′,1′:4,5]indeno[1,2-c]pyrazol-12-yl)-N-(4-methoxypyridin-2-yl)propanamide] | 70 |
| Cc1ccnc(NC(=O)CC[C@@H]2c3c[nH]nc3[C@@]3(C)CCC4c5ccc(F)cc5CCC4C23)c1 (stereo partly drawn) [Compound 93, 3-((8aS,12S)-4-fluoro-8a-methyl-1,2,6b,7,8,8a,10,12,12a,12b-decahydronaphtho[2′,1′:4,5]indeno[1,2-c]pyrazol-12-yl)-N-(4-methylpyridin-2-yl)-propanamide] | 79 |
| C[C@]12CCC3c4ccc(F)cc4CCC3C1[C@H](CCC(=O)Nc1ccc(N3CCOCC3)cn1)c1c[nH]nc12 (stereo partly drawn) [Compound 96, 3-((8aS,12S)-4-fluoro-8a-methyl-1,2,6b,7,8,8a,10,12,12a,12b-decahydronaphtho[2′,1′:4,5]indeno[1,2-c]pyrazol-12-yl)-N-(5-morpholinopyridin-2-yl)propanamide] | 74 |

Reference: patent US20220041647A1, “ESTRA-1,3,5(10)-TRIENE COMPOUNDS CONDENSED IN POSITION 16(17) WITH A PYRAZOLE RING AS INHIBITORS OF 17-HSD1” (FORENDO PHARMA LTD, priority 2018, published 2022)
